Measurements published in US20200361871A1 (Enterprise Therapeutics Ltd., priority 2018, published 2020).

Target: human TMEM16A (TMEM16Aabc variant) (Homo sapiens, UniProt Q5XXA6, DEL476-501, form not given)
Experiment: Automated whole-cell patch clamp (Qpatch) TMEM16A potentiator assay in FRT cells stably expressing human TMEM16A
Format: cell-based
Conditions: for % Potentiation @ 3.33 μM Avg: 3.33 μM solution of test compound, percentage increase of baseline TMEM16A current; for EC50: calculated EC50, Qpatch TMEM16A current at +70 mV
How it was run: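 FRT cells stably expressing human TMEM16Aabc were recorded by automated whole-cell patch clamp, with intracellular Ca2+ buffered for ~EC20 activation, holding −70 mV and step to +70 mV at 0.05 Hz. Compound was applied cumulatively, 5 min per concentration. Peak current increase as % of baseline was fitted to give EC50 and maximum efficacy.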

human TMEM16A (TMEM16Aabc variant), sequence (Q5XXA6 with tags, fused parts or gaps DEL476-501): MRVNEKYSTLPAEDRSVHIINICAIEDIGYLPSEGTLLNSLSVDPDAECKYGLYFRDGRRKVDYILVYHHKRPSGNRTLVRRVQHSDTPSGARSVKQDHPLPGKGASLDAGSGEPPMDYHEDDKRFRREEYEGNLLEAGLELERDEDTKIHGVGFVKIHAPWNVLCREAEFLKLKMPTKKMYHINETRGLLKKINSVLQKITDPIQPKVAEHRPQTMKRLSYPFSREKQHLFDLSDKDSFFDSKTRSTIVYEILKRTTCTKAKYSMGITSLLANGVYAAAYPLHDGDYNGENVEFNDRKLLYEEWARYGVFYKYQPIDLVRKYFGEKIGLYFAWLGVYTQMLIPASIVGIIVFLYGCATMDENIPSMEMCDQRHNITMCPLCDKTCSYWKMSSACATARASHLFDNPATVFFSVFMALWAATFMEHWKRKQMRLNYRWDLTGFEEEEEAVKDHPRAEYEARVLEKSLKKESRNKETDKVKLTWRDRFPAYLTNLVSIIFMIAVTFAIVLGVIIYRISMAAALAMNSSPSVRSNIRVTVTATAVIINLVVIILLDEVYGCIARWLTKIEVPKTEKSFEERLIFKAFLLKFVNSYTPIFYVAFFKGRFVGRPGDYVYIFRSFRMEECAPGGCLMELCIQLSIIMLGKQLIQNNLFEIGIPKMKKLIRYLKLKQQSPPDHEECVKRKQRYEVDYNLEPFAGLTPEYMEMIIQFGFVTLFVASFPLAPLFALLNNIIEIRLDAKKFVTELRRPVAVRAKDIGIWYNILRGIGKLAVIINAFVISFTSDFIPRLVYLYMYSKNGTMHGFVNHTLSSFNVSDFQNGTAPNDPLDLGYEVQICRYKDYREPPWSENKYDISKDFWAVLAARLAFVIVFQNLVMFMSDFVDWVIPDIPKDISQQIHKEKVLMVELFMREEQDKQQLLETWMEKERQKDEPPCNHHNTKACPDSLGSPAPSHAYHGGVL

Row | Compound | % Potentiation @ 3.33 μM Avg [%] | EC50 [nM]
1 | CC(C)(C)NC(=O)c1cc(NC(=O)C2CCc3c(Cl)ccc(O)c32)ccn1 (single isomer, unassigned) [Example 57b, N-tert-butyl-4-[[(1S) or (1R)-4-chloro-7-hydroxy-indane-1-carbonyl]amino]pyridine-2-carboxamide] | 162 | 670
2 | O=C(O)CCCCCCCCCCCNC(=O)c1cc(NC(=O)Cc2cc(Cl)ccc2O)ccn1 [Example 32.1, 12-[[4-[[2-(5-Chloro-2-hydroxy-phenyl)acetyl]amino]pyridine-2-carbonyl]amino]dodecanoic acid] | 246 | 
3 | CC(C)(C)NC(=O)c1cccc(NC(=O)Cc2cc(F)ccc2O)c1 [Example 2.1, N-tert-Butyl-3-[[2-(5-fluoro-2-hydroxy-phenyl)acetyl]amino]benzamide] | 216 | 490
4 | CC(C)(C)NC(=O)c1cc(NC(=O)NCc2ccccc2O)ccn1 [Example 65.2, N-tert-Butyl-4-[(2-hydroxyphenyl)methylcarbamoylamino]pyridine-2-carboxamide] | 73 | 480
5 | COCC(C)(C)NC(=O)c1cccc(NC(=O)Cc2ccccc2O)c1 [Example 1.9, 3-[[2-(2-Hydroxyphenyl)acetyl]amino]-N-(2-methoxy-1,1-dimethyl-ethyl)benzamide] | 79 | 4200
6 | CC(C)(C)NC(=O)c1cc(NC(=O)Cc2ccc(F)c(F)c2)ccn1 [Example 23.6, N-tert-Butyl-4-[[2-(3,4-difluorophenyl)acetyl]amino]pyridine-2-carboxamide] | 108 | 
7 | CC(C)(C)NC(=O)c1cc(NC(=O)Cc2cc(O)ccc2Cl)ccn1 [Example 3.16b, N-tert-Butyl-4-[[2-(2-chloro-5-hydroxy-phenyl)acetyl]amino]pyridine-2-carboxamide] | 167 | 170
8 | C#CC(C)(C)NC(=O)c1cc(NC(=O)Cc2ccccc2Cl)ccn1 [Example 30.1, 4-[[2-(2-Chlorophenyl)acetyl]amino]-N-(1,1-dimethylprop-2-ynyl)pyridine-2-carboxamide] | 245 | 140
9 | CC(C)(C)NC(=O)c1cc(NC(=O)Cc2ccccc2C(F)(F)F)ccn1 [Example 23.12, N-tert-Butyl-4-[[2-[2-(trifluoromethyl)phenyl]acetyl]amino]pyridine-2-carboxamide] | 197 | 330
10 | CC1(NC(=O)c2cccc(NC(=O)Cc3cc(Cl)ccc3O)c2)CCN(C(=O)OC(C)(C)C)CC1 [Example 8.2, tert-Butyl 4-[[3-[[2-(5-chloro-2-hydroxy-phenyl)acetyl]amino]benzoyl]amino]-4-methyl-piperidine-1-carboxylate] | 169 | 1960
11 | C#CC(C)(C)NC(=O)c1cc(NC(=O)Cc2cc(F)ccc2F)ccn1 [Example 77, 4-[[2-(2,5-Difluorophenyl)acetyl]amino]-N-(1,1-dimethylprop-2-ynyl)pyridine-2-carboxamide] | 139 | 410
12 | CC1(NC(=O)c2cc(NC(=O)Cc3cc(Cl)ccc3O)ccn2)CCCCC1 [Example 1.7, 4-[[2-(5-Chloro-2-hydroxy-phenyl)acetyl]amino]-N-(1-methylcyclohexyl)pyridine-2-carboxamide] | 239 | 150
13 | CC(C)(C)NC(=O)c1cccc(NC(=O)Cc2cc(F)c(F)cc2O)c1 [Example 2.12, N-tert-Butyl-3-[[2-(4,5-difluoro-2-hydroxy-phenyl)acetyl]amino] benzamide] | 111 | 310
14 | CC(C)(CCNS(C)(=O)=O)NC(=O)c1cc(NC(=O)Cc2cc(Cl)ccc2O)ccn1 [Example 50, 4-[[2-(5-Chloro-2-hydroxy-phenyl)acetyl]amino]-N-[3-(methanesulfonamido)-1,1-dimethyl-propyl]pyridine-2-carboxamide] | 65 | 
15 | CC12CC(NC(=O)c3cc(NC(=O)Cc4ccccc4Cl)ccn3)(C1)C2 [Example 30.4, 4-[[2-(2-Chlorophenyl)acetyl]amino]-N-(1-methyl-3-bicyclo[1.1.1]pentanyl)pyridine-2-carboxamide] | 95 | 750
16 | CC(C)(C)NC(=O)c1cc(NC(=O)Cc2cc(Cl)c(CN3CCOCC3)cc2O)ccn1 [Example 27.2, N-tert-Butyl-4-[[2-[5-chloro-2-hydroxy-4-(morpholinomethyl)phenyl]acetyl]amino]pyridine-2-carboxamide] | 300 | 
17 | CC(C#N)(CO)NC(=O)c1cc(NC(=O)Cc2cc(Cl)ccc2O)ccn1 (racemic) [Example 46, 4-[[2-(5-Chloro-2-hydroxy-phenyl)acetyl]amino]-N-(1-cyano-2-hydroxy-1-methyl-ethyl)pyridine-2-carboxamide] | 275 | 250

Row | Compound | % Potentiation @ 3.33 μM Avg [%] | EC50 [nM]
18 | COC(=O)c1ccc(O)c(CC(=O)Nc2ccnc(C(=O)NC(C)(C)C)c2)c1 [Example 13, Methyl 3-[2-[[2-(tert-butylcarbamoyl)-4-pyridyl]amino]-2-oxo-ethyl]-4-hydroxy-benzoate] | 245 | 1000
19 | CC(C)(C)NC(=O)c1cc(NC(=O)Cc2cc(O)ccc2F)ccn1 [Example 3.13b, N-tert-butyl-4-[[2-(2-fluoro-5-hydroxy-phenyl)acetyl]amino]pyridine-2-carboxamide] | 179 | 250
20 | COCC(C#N)(COC)NC(=O)c1cc(NC(=O)Cc2cc(Cl)ccc2O)ccn1 [Example 86, 4-[[2-(5-Chloro-2-hydroxy-phenyl)acetyl]amino]-N-[1-cyano-2-methoxy-1-(methoxymethyl)ethyl]pyridine-2-carboxamide] | 593 | 350
21 | Cc1cc(C(=O)Nc2ccnc(C(=O)NC(C)(C)C#N)c2)c(C)n1Cc1cccs1 [Example 83.26, N-(1-Cyano-1-methyl-ethyl)-4-[[2,5-dimethyl-1-(2-thienylmethyl)pyrrole-3-carbonyl]amino]pyridine-2-carboxamide] | 95 | 
22 | C[C@](C#N)(CO)NC(=O)c1cc(NC(=O)Cc2cc(Cl)ccc2O)ccn1 (single isomer, unassigned) [Example 46a, 4-[[2-(5-Chloro-2-hydroxy-phenyl)acetyl]amino]-N-[(1S)-1-cyano-2-hydroxy-1-methyl-ethyl]pyridine-2-carboxamide or 4-[[2-(5-chloro-2-hydroxy-phenyl)acetyl]amino]-N-[(1R)-1-cyano-2-hydroxy-1-methyl-ethyl]pyridine-2-carboxamide] | 249 | 110
23 | CC(C)(C)NC(=O)c1cccc(NC(=O)Cc2ccc(F)cc2O)c1 [Example 2.3, N-tert-Butyl-3-[[2-(4-fluoro-2-hydroxy-phenyl)acetyl]amino]benzamide] | 203 | 590
24 | CC(C)(C)NC(=O)c1cc(NC(=O)Cc2cc(Cl)c(CN3CCCC3)cc2O)ccn1 [Example 27, N-tert-Butyl-4-[[2-[5-chloro-2-hydroxy-4-(pyrrolidin-1-ylmethyl)phenyl]acetyl]amino]pyridine-2-carboxamide] | 90 | 
25 | C#CC(C)(C)NC(=O)c1cc(NC(=O)Cc2cccc(C(F)(F)F)c2)ccn1 [Example 5.37, N-(1,1-Dimethylprop-2-ynyl)-4-[[2-[3-(trifluoromethyl)phenyl]acetyl]amino]pyridine-2-carboxamide] | 117 | 150
26 | C#CC1(NC(=O)c2cc(NC(=O)Cc3cc(Cl)ccc3O)ccn2)CCCC1 [Example 31.2, 4-[[2-(5-Chloro-2-hydroxy-phenyl)acetyl]amino]-N-(1-ethynylcyclopentyl)pyridine-2-carboxamide] | 110 | 10
27 | O=C(Cc1cc(Cl)ccc1O)Nc1ccnc(C(=O)NC23CCC(F)(C2)C3)c1 [Example 44, 4-[[2-(5-Chloro-2-hydroxy-phenyl)acetyl]amino]-N-(4-fluoro-1-bicyclo[2.1.1]hexanyl)pyridine-2-carboxamide] | 377 | 50
28 | N#CC1(NC(=O)c2cc(NC(=O)Cc3cc(Cl)ccc3O)ccn2)CCC1 [Example 7.16, 4-[[2-(5-Chloro-2-hydroxy-phenyl)acetyl]amino]-N-(1-cyanocyclobutyl)pyridine-2-carboxamide] | 354 | 130
29 | CC(C)(NC(=O)c1cc(NC(=O)Cc2cc(Cl)ccc2O)ccn1)c1ccccn1 [Example 35.9, 4-[[2-(5-Chloro-2-hydroxy-phenyl)acetyl]amino]-N-[1-methyl-1-(2-pyridyl)ethyl]pyridine-2-carboxamide] | 455 | 540
30 | C#CC(C)(C)NC(=O)c1cc(NC(=O)CC2OCCc3ccccc32)ccn1 (centres unmarked) [Example 5.33, N-(1,1-Dimethylprop-2-ynyl)-4-[(2-isochroman-1-ylacetyl)amino]pyridine-2-carboxamide] | 49 | 
31 | C#CC(C)(C)NC(=O)c1cc(NC(=O)CC2CCOc3ccccc32)ccn1 (centres unmarked) [Example 79, 4-[(2-Chroman-4-ylacetyl)amino]-N-(1,1-dimethylprop-2-ynyl)pyridine-2-carboxamide] | 60 | 
32 | CC(C)(C)NC(=O)c1cc(NC(=O)Cc2ccc3ncoc3c2)ccn1 [Example 5.15, 4-[[2-(1,3-Benzoxazol-6-yl)acetyl]amino]-N-tert-butyl-pyridine-2-carboxamide] | 87 | 
33 | Cn1nc(-c2ccccc2)cc1C(=O)Nc1ccnc(C(=O)NC(C)(C)C#N)c1 [Example 83.22, N-(1-Cyano-1-methyl-ethyl)-4-[(2-methyl-5-phenyl-pyrazole-3-carbonyl)amino]pyridine-2-carboxamide] | 85 | 
